According to US12342818B2, “Formulations and methods for controlling invasive amphibians” (priority 2019, dated 2025):

System: Adult cane toads (Rhinella marina)
Experiment: Cane toad spray trial (formulation sprayed on ventral and/or dorsal surface)
Type: in vivo
Conditions: for Mortality Rate / Avg. Time Until Breathing & Heart Beat Not Detected / Avg. Time to Unresponsive: 48 hrs trial
Method: Adult cane toads (Rhinella marina) (>[…] SUL=snout-urostyle length) were collected around Townsville one or two nights prior to the trials. The toads were kept in two Nally bins with all males in one, and all females in the other for ease of sorting. […]
• 1. The compound and carrier controls were prepared on day of testing. • 2. Toads were weighed, measured and placed in individual buckets and left for 10 minutes to settle. • 3. 1.5 ml of the formulation or carrier or water was delivered to the ventral and/or dorsal surface of each toad via a spray bottle (2×1 ml sprays and accounting for approximately 0.5 ml loss during spraying). • 4. Measurements of toad behaviour and heart rate were recorded at T=5, 10, 15, 20, 25, 30, 45, 60, 75, 90, 105, 120 minutes, plus 4-6 hours, 10-12 hours, 16-18 hours and 24 hours after spraying. If toads were still unconscious but not dead (if there was a heartbeat) within 24 hours, they were checked again at 48 hours. The following measurements were taken at each time interval: • Consciousness: Righting reflex was tested by flipping toads onto their backs and their ability to right themselves was recorded as “fast,” “slow,” or “unresponsive”. Observations were made of the palpebral reflex and involuntary muscular movement: Palpebral reflex was tested by gently tapping the palpebral area with the finger and observing eyelid movement. Involuntary muscular movement was tested via the withdrawal reflex, by grasping each limb distally and extending it. • Breathing/heart rate (did the toad appear to be breathing or was there a detectable heart beat); • Side effects (any other noticeable effects of the formulation such as twitching, distress or agitation, poison gland discharge, muscle rigidness, gasping, or ventral redness).
Even when no vital signs are detected externally during the experimental process, previous studies have shown that toads may appear dead and still have a heartbeat. At the completion of the trials, all animals were anaesthetised with a lethal dose MS222 (tricaine mesylate) then dissected to determine if the heart was still beating and to look for any signs of internal necrosis.

[1] = carrier ethanol, 84.2 g/L, 2 sprays ventral + dorsal, 6 toads
[2] = carrier ethanol, 168.36 g/L, 2 sprays ventral + dorsal, 6 toads
[3] = carrier isopropanol, 84.2 g/L, 2 sprays ventral + dorsal, 6 toads
[4] = carrier isopropanol, 126.3 g/L, 2 sprays dorsal, 6 toads
[5] = carrier isopropanol, 126.3 g/L, 2 sprays dorsal, 24 toads (repeat trial)
[6] = carrier isopropanol, 140 g/L, 2 sprays dorsal, 22 toads
[7] = carrier isopropanol, 168.36 g/L, 2 sprays ventral + dorsal, 6 toads

OCCOc1ccccc1 [2-Phenoxyethanol]
Mortality Rate (carrier ethanol, 21.05 g/L, 2 sprays ventral + dorsal, 6 toads): 0%
Avg. Time Until Breathing & Heart Beat Not Detected [1]: 405 min
Avg. Time to Unresponsive [1]: 15 min
Mortality Rate [1]: 100%
Avg. Time Until Breathing & Heart Beat Not Detected [2]: 20 min
Avg. Time to Unresponsive [2]: 13.33 min
Mortality Rate [2]: 100%
Avg. Time Until Breathing & Heart Beat Not Detected [3]: 40.83 min
Avg. Time to Unresponsive [3]: 16.67 min
Mortality Rate [3]: 100%
Avg. Time Until Breathing & Heart Beat Not Detected [4]: 23 min
Avg. Time to Unresponsive [4]: 18.3 min
Mortality Rate [4]: 100%
Avg. Time Until Breathing & Heart Beat Not Detected [5]: 24.25 min
Avg. Time to Unresponsive [5]: 18 min
Mortality Rate [5]: 95.8%
Avg. Time Until Breathing & Heart Beat Not Detected [6]: 22.05 min
Avg. Time to Unresponsive [6]: 17.95 min
Mortality Rate [6]: 100%
Avg. Time Until Breathing & Heart Beat Not Detected [7]: 14.17 min
Avg. Time to Unresponsive [7]: 11.67 min
Mortality Rate [7]: 100%
Avg. Time to Unresponsive (carrier propylene glycol, 168.36 g/L, 2 sprays ventral + dorsal, 6 toads): 15.83 min
Avg. Time to Unresponsive (carrier water, 168.36 g/L, 2 sprays ventral + dorsal, 6 toads): 14.166 min
effectiveness among potential toxicants tested (in different carriers) (compared with benzocaine, sodium nitrite, tricaine mesylate, sodium monesnsin): only real effective candidate
effectiveness as toad control (concentration greater than 40 g/L in a carrier of either ethanol or isopropanol): effective control
effectiveness as toad control (formulations with water as a carrier): not effective
